According to ChEMBL document CHEMBL1649461, “Fitness cost of VanA-type vancomycin resistance in methicillin-resistant Staphylococcus aureus” (2009):
≈ marks a conversion by molar mass, not a printed value.

Key:
Type in all cases: functional
Staphylococcus aureus [1] = assay: Antimicrobial activity against VanA-type vancomycin-resistant and methicillin-resistant Staphylococcus aureus 1 by broth dilution method
Staphylococcus aureus [2] = assay: Antimicrobial activity against methicillin-resistant Staphylococcus aureus HIP11713 by broth dilution method
Staphylococcus aureus [3] = assay: Antimicrobial activity against VanA-type vancomycin-resistant and methicillin-resistant Staphylococcus aureus 5 by broth dilution method
Staphylococcus aureus [4] = assay: Antimicrobial activity against VanA-type vancomycin-resistant and methicillin-resistant Staphylococcus aureus 6 by broth dilution method

Row | Compound | MIC (Staphylococcus aureus [1]) [µg/mL] | MIC (Staphylococcus aureus [2]) [µg/mL] | MIC (Staphylococcus aureus [3]) [µg/mL] | MIC (Staphylococcus aureus [4]) [µg/mL]
1 | CC(=O)N[C@@H]1[C@H](Oc2c3cc4cc2Oc2ccc(cc2Cl)[C@@H](O[C@@H]2O[C@@H](CO)[C@@H](O)[C@H](O)[C@@H]2NC(C)=O)[C@@H]2NC(=O)[C@H](NC(=O)[C@@H]4NC(=O)[C@H]4NC(=O)[C@@H](Cc5ccc(c(Cl)c5)O3)NC(=O)[C@H](N)c3ccc(O)c(c3)Oc3cc(O)cc4c3)c3ccc(O)c(c3)-c3c(O[C@H]4O[C@H](CO)[C@@H](O)[C@@H](O)[C@@H]4O)cc(O)cc3[C@@H](C(=O)O)NC2=O)O[C@@H](CO)[C@@H](O)[C@@H]1O | 256 (≈ 145 µM) | 1 (≈ 0.566 µM) | 64 (≈ 36.2 µM) | 128 (≈ 72.4 µM)
2 | CN[C@H](CC(C)C)C(=O)N[C@H]1C(=O)N[C@@H](CC(N)=O)C(=O)N[C@H]2C(=O)N[C@H]3C(=O)N[C@H](C(=O)N[C@H](C(=O)O)c4cc(O)cc(O)c4-c4cc3ccc4O)[C@H](O)c3ccc(c(Cl)c3)Oc3cc2cc(c3O[C@@H]2O[C@H](CO)[C@@H](O)[C@H](O)[C@H]2O[C@H]2C[C@](C)(N)[C@H](O)[C@H](C)O2)Oc2ccc(cc2Cl)[C@H]1O [VANCOMYCIN] | 2050 (≈ 1410 µM) | – | 1020 (≈ 707 µM) | 1020 (≈ 707 µM)
